# Source: US7439226B2, “Serine protease inhibitors” (The United States of America as represented by the …, priority 2003, dated 2008)
# Tests used:
# thrombin = thrombin (Homo sapiens, UniProt P00734); settings: background statement; cited from earlier work
# bovine thrombin = target: T1, bovine thrombin (Bos taurus, UniProt P00735); assay: Thrombin inhibition, fluorescent substrate N-t-Boc Leu-Arg-Arg-AMC, Ki by Dixon plots; type: biochemical; settings: read-out: Ki of SFTI-1 (nM), Thrombin; room temperature, pH 8.5
# T1 construct: purchased Sigma (Sigma Chemical Co., St. Louis, Mo.)
# Text: (§1) 13, 2003, and which is incorporated herein by reference.
# matriptase = matriptase (Homo sapiens, UniProt Q9Y5Y6); settings: background statement; cited from earlier work
# matriptase, sequence (Q9Y5Y6 whole entry, species assumed): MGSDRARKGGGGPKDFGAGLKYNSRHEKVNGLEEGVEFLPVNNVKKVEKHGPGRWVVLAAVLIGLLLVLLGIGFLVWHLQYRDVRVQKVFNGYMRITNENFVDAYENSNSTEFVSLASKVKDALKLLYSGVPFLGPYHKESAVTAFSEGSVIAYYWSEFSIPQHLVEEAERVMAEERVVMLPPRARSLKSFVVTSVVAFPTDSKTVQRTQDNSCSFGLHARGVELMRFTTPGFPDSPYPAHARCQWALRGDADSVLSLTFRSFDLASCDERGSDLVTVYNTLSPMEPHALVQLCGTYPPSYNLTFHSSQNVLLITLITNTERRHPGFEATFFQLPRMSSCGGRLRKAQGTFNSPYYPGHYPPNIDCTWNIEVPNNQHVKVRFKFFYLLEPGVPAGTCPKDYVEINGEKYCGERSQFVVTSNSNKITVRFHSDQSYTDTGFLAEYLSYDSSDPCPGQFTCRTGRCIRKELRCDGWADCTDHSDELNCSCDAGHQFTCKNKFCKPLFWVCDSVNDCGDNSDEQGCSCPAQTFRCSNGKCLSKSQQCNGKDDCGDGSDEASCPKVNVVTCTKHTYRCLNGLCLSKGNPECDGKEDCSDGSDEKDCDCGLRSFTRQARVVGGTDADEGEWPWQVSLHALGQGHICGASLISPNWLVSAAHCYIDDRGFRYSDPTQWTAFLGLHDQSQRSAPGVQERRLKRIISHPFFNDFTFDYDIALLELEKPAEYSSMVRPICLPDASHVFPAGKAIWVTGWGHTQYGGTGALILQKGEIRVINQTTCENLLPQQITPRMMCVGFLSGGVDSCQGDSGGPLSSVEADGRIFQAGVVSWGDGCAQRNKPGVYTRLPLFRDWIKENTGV
# cathepsin G = target: T2, cathepsin G (Homo sapiens, UniProt P08311); settings: background statement; cited from earlier work
# T2 sequence (P08311 21-244): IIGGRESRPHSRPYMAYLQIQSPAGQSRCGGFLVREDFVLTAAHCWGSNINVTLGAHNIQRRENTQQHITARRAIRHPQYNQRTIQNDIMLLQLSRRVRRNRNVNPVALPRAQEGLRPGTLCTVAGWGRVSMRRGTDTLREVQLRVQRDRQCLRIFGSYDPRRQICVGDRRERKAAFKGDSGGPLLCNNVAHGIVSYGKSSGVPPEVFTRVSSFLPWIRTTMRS
# Factor Xa = Factor Xa (Homo sapiens, UniProt P00742); settings: Luckett et al. J Mol. Biol. 1999; cited from earlier work
# Factor Xa, sequence (P00742 235-488 limits assumed): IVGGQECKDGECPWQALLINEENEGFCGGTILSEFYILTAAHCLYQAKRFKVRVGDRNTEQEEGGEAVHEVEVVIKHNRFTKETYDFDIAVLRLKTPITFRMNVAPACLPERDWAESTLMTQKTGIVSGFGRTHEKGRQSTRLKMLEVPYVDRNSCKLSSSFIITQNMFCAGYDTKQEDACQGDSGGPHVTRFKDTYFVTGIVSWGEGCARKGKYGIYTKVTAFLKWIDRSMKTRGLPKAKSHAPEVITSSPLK
# Factor Xa, sequence (P00742 41-179 partner limits assumed): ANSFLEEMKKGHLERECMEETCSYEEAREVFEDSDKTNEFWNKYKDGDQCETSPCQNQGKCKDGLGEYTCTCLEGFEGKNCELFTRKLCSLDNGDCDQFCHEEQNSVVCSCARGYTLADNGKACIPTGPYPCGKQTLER
# elastase = settings: background statement; cited from earlier work
# [1] = target: T3, Urokinase-type plasminogen activator (uPA) (Homo sapiens, UniProt P00749); assay: uPA inhibition, fluorescent substrate N-t-Boc-Leu-Gly-Arg-AMC, Ki by Dixon plots; type: biochemical; settings: room temperature, pH 8.5
# T3 construct: from a partially purified uPA from human urine; from tissue; host or cells: human urine
# Text: as §1
structure (smiles),measurement,setting,value
CC[C@H](C)[C@@H]1NC(=O)[C@@H]2CCCN2C(=O)[C@@H]2CCCN2C(=O)[C@H]([C@@H](C)CC)NC(=O)[C@H](CO)NC(=O)[C@H](CCCCN)NC(=O)[C@H]([C@@H](C)O)NC(=O)[C@@H]2CSSC[C@H](NC1=O)C(=O)N[C@@H](Cc1ccccc1)C(=O)N1CCC[C@H]1C(=O)N[C@@H](CC(=O)O)C(=O)NCC(=O)N[C@@H](CCCNC(=N)N)C(=O)N2 [SFTI-1],inhibitory activity against thrombin compared with matriptase,thrombin,three orders of magnitude lower
same,Ki,bovine thrombin,5050 nM
same,inhibitory constant (Ki) against matriptase,matriptase,subnanomolar
same,inhibitory constant (Ki) against cathepsin G,cathepsin G,subnanomolar
same,effect on the activity of Factor Xa,Factor Xa,no detectable effect
same,inhibitory activity against elastase compared with matriptase,elastase,three orders of magnitude lower
same,Ki,[1],500 µM
